Numbers after ± are expanded uncertainties.
Columns and labels:
[1] = 298.15 K; for surface tension liquid-gas: Pendant drop shape; for mass density: 101.33 kPa, Liquid
[2] = xn = mol fraction of the nth substance listed; conditions: 298.15 K, Pendant drop shape

In the case of Cc1ccccc1C [1,2-dimethylbenzene], the surface tension liquid-gas [1] is reported as 29.35 ± 0.3 mN/m and the mass density [1] is reported as 875.92 ± 0.42 kg/m3.
Cc1ccccc1C [1,2-dimethylbenzene] + CC(C)=O showed a surface tension liquid-gas ([2]; x2 = 0.0995) of 29.13 ± 0.3 mN/m, a surface tension liquid-gas ([2]; x2 = 0.2016) of 28.84 ± 0.3 mN/m and a surface tension liquid-gas ([2]; x2 = 0.3047) of 28.45 ± 0.3 mN/m. For the same compound, the surface tension liquid-gas ([2]; x2 = 0.403) was 28.07 ± 0.29 mN/m, the surface tension liquid-gas ([2]; x2 = 0.4999) was 27.58 ± 0.29 mN/m and the surface tension liquid-gas ([2]; x2 = 0.6017) was 26.99 ± 0.29 mN/m. It also gave a surface tension liquid-gas ([2]; x2 = 0.6991) of 26.34 ± 0.28 mN/m, a surface tension liquid-gas ([2]; x2 = 0.7998) of 25.65 ± 0.28 mN/m and a surface tension liquid-gas ([2]; x2 = 0.9002) of 24.86 ± 0.27 mN/m.
Compound Cc1cccc(C)c1 [1,3-dimethylbenzene] has a surface tension liquid-gas [1] of 28.36 ± 0.3 mN/m and a mass density [1] of 859.78 ± 0.49 kg/m3.
Cc1cccc(C)c1 [1,3-dimethylbenzene] + CC(C)=O gave a surface tension liquid-gas ([2]; x2 = 0.1027) of 28.16 ± 0.3 mN/m, a surface tension liquid-gas ([2]; x2 = 0.1996) of 27.95 ± 0.3 mN/m and a surface tension liquid-gas ([2]; x2 = 0.3049) of 27.67 ± 0.29 mN/m. The surface tension liquid-gas ([2]; x2 = 0.4029) was 27.31 ± 0.29 mN/m, the surface tension liquid-gas ([2]; x2 = 0.4993) was 26.91 ± 0.29 mN/m and the surface tension liquid-gas ([2]; x2 = 0.6024) was 26.41 ± 0.28 mN/m. The surface tension liquid-gas ([2]; x2 = 0.7002) was 25.86 ± 0.28 mN/m, the surface tension liquid-gas ([2]; x2 = 0.801) was 25.27 ± 0.27 mN/m and the surface tension liquid-gas ([2]; x2 = 0.9014) was 24.66 ± 0.27 mN/m.
Work on Cc1cccc(C)c1 [1,3-dimethylbenzene] + CCC(C)=O yielded a surface tension liquid-gas ([2]; x2 = 0.1044) of 27.99 ± 0.3 mN/m, a surface tension liquid-gas ([2]; x2 = 0.2015) of 27.66 ± 0.3 mN/m and a surface tension liquid-gas ([2]; x2 = 0.3028) of 27.29 ± 0.29 mN/m. It also gave a surface tension liquid-gas ([2]; x2 = 0.4011) of 26.93 ± 0.29 mN/m, a surface tension liquid-gas ([2]; x2 = 0.5013) of 26.53 ± 0.28 mN/m and a surface tension liquid-gas ([2]; x2 = 0.6009) of 26.11 ± 0.28 mN/m. For the same compound, the surface tension liquid-gas ([2]; x2 = 0.6999) was 25.68 ± 0.28 mN/m, the surface tension liquid-gas ([2]; x2 = 0.7999) was 25.24 ± 0.27 mN/m and the surface tension liquid-gas ([2]; x2 = 0.9) was 24.76 ± 0.27 mN/m.
Cc1ccc(C)cc1 [1,4-dimethylbenzene] gave a surface tension liquid-gas [1] of 27.89 ± 0.29 mN/m and a mass density [1] of 856.85 ± 0.46 kg/m3.
For Cc1ccc(C)cc1 [1,4-dimethylbenzene] + CC(C)=O, the surface tension liquid-gas ([2]; x2 = 0.1027) was 27.69 ± 0.29 mN/m, the surface tension liquid-gas ([2]; x2 = 0.2022) was 27.41 ± 0.29 mN/m and the surface tension liquid-gas ([2]; x2 = 0.3029) was 27.11 ± 0.29 mN/m. For the same compound, the surface tension liquid-gas ([2]; x2 = 0.3993) was 26.78 ± 0.28 mN/m, the surface tension liquid-gas ([2]; x2 = 0.5009) was 26.41 ± 0.28 mN/m and the surface tension liquid-gas ([2]; x2 = 0.6006) was 25.98 ± 0.28 mN/m. For the same compound, the surface tension liquid-gas ([2]; x2 = 0.7005) was 25.51 ± 0.28 mN/m, the surface tension liquid-gas ([2]; x2 = 0.8002) was 25.03 ± 0.27 mN/m and the surface tension liquid-gas ([2]; x2 = 0.9007) was 24.51 ± 0.27 mN/m.
For CC(C)=O [acetone], the surface tension liquid-gas [1] was 24.01 ± 0.26 mN/m and the mass density [1] was 784.39 ± 0.61 kg/m3.
In the case of CCC(C)=O [butanone], the surface tension liquid-gas [1] is reported as 24.28 ± 0.27 mN/m and the mass density [1] is reported as 799.62 ± 0.57 kg/m3.
With CCC(C)=O [butanone] + Cc1ccc(C)cc1 the surface tension liquid-gas ([2]; x1 = 0.0999) was 27.58 ± 0.29 mN/m, the surface tension liquid-gas ([2]; x1 = 0.2007) was 27.27 ± 0.29 mN/m and the surface tension liquid-gas ([2]; x1 = 0.3001) was 26.95 ± 0.29 mN/m. For the same compound, the surface tension liquid-gas ([2]; x1 = 0.402) was 26.62 ± 0.28 mN/m, the surface tension liquid-gas ([2]; x1 = 0.5001) was 26.28 ± 0.28 mN/m and the surface tension liquid-gas ([2]; x1 = 0.6006) was 25.91 ± 0.28 mN/m. For the same compound, the surface tension liquid-gas ([2]; x1 = 0.7009) was 25.51 ± 0.28 mN/m, the surface tension liquid-gas ([2]; x1 = 0.8009) was 25.12 ± 0.27 mN/m and the surface tension liquid-gas ([2]; x1 = 0.8999) was 24.71 ± 0.27 mN/m.
CCC(C)=O [butanone] + Cc1ccccc1C showed a surface tension liquid-gas ([2]; x1 = 0.1001) of 29 ± 0.3 mN/m, a surface tension liquid-gas ([2]; x1 = 0.2028) of 28.58 ± 0.3 mN/m and a surface tension liquid-gas ([2]; x1 = 0.3001) of 28.17 ± 0.3 mN/m. For the same compound, the surface tension liquid-gas ([2]; x1 = 0.4017) was 27.68 ± 0.29 mN/m, the surface tension liquid-gas ([2]; x1 = 0.5006) was 27.19 ± 0.29 mN/m and the surface tension liquid-gas ([2]; x1 = 0.6018) was 26.65 ± 0.28 mN/m. The surface tension liquid-gas ([2]; x1 = 0.7012) was 26.11 ± 0.28 mN/m, the surface tension liquid-gas ([2]; x1 = 0.8006) was 25.55 ± 0.28 mN/m and the surface tension liquid-gas ([2]; x1 = 0.8994) was 24.96 ± 0.27 mN/m.

Reference: the NIST ThermoML archive (doi:10.1021/je0341763)
